Assays:
Assay type in all cases: in vivo
Setaria faberi (SETFA) [1] = experiment: Pre-emergence herbicidal test; conditions: 1000 g/ha, evaluated after 13 days
[2] = system: Echinochloa crus-galli (ECHCG); experiment: Pre-emergence herbicidal test; conditions: 1000 g/ha, evaluated after 13 days
[3] = system: Ipomoea hederacea (IPOHE); experiment: Pre-emergence herbicidal test; conditions: 1000 g/ha, evaluated after 13 days
Setaria faberi (SETFA) [4] = experiment: Post-emergence herbicidal test; conditions: 1000 g/ha unless otherwise stated, evaluated after 13 days
Procedure, shortened: (§1)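 Scored 0–5 for percent damage (0=0%, 5=81-100%) 13 days after spraying, typically at 1000 g/ha in acetone/water (50:50) plus 0.5% Tween 20. Post-emergence plants treated at 8 days old, grown at 24° C/16° C day/night, 14 h light, 65% humidity, watered twice daily.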

[5] = system: Ipomoea hederacea (IPOHE); experiment: Post-emergence herbicidal test; conditions: 1000 g/ha unless otherwise stated, evaluated after 13 days
Procedure, shortened: as §1

[6] = system: Abutilon theophrasti (ABUTH); experiment: Post-emergence herbicidal test; conditions: 1000 g/ha unless otherwise stated, evaluated after 13 days
Procedure, shortened: as §1

Zea mays (ZEAMX) [7] = experiment: Post-emergence herbicidal test; conditions: 1000 g/ha unless otherwise stated, evaluated after 13 days
Procedure, shortened: as §1

[8] = system: Amaranthus retoflexus (AMARE); experiment: Post-emergence herbicidal test; conditions: 1000 g/ha unless otherwise stated, evaluated after 13 days
Procedure, shortened: as §1

[9] = system: Echinochloa crus-galli (ECHCG); experiment: Post-emergence herbicidal test; conditions: 1000 g/ha unless otherwise stated, evaluated after 13 days
Procedure, shortened: as §1

[10] = system: Abutilon theophrasti (ABUTH); experiment: Pre-emergence herbicidal test; conditions: 1000 g/ha, evaluated after 13 days
[11] = system: Amaranthus retoflexus (AMARE); experiment: Pre-emergence herbicidal test; conditions: 1000 g/ha, evaluated after 13 days
Zea mays (ZEAMX) [12] = experiment: Pre-emergence herbicidal test; conditions: 1000 g/ha, evaluated after 13 days

| SMILES | percentage damage caused to the plant, five-point scale, SETFA (Setaria faberi (SETFA) [1]) | percentage damage caused to the plant, five-point scale, ECHCG [2] | percentage damage caused to the plant, five-point scale, IPOHE [3] | percentage damage caused to the plant, SETFA (five-point scale) (Setaria faberi (SETFA) [4]) | percentage damage caused to the plant, IPOHE (five-point scale) [5] | percentage damage caused to the plant, ABUTH (five-point scale) [6] | percentage damage caused to the plant, ZEAMX (five-point scale) (Zea mays (ZEAMX) [7]) | percentage damage caused to the plant, AMARE (five-point scale) [8] | percentage damage caused to the plant, ECHCG (five-point scale) [9] | percentage damage caused to the plant, five-point scale, ABUTH [10] | percentage damage caused to the plant, five-point scale, AMARE [11] | percentage damage caused to the plant, five-point scale, ZEAMX (Zea mays (ZEAMX) [12]) |
| --- | --- | --- | --- | --- | --- | --- | --- | --- | --- | --- | --- | --- |
| O=C(O)c1nn(-c2ccc(OC(F)(F)F)cc2)c2cccc(S(=O)(=O)C3CC3)c2c1=O [Compound P29, 5-cyclopropylsulfonyl-4-oxo-1-[4-(trifluoromethoxy)phenyl]cinnoline-3-carboxylic acid] | 0 (0=0%) | 0 (0=0%) | 0 (0=0%) | 0 (0=0%) | 0 (0=0%) | 0 (0=0%) | 0 (0=0%) | 0 (0=0%) | 0 (0=0%) | 0 (0=0%) | 0 (0=0%) | 0 (0=0%) |
| CS(=O)(=O)c1c(F)ccc2c1c(=O)c(C(=O)O)nn2-c1ccc(OC(F)(F)F)cc1 [Compound P20, 6-fluoro-5-methylsulfonyl-4-oxo-1-[4-(trifluoromethoxy)phenyl]cinnoline-3-carboxylic acid] | 0 (0=0%) | 0 (0=0%) | 0 (0=0%) | 0 (0=0%) | 0 (0=0%) | 0 (0=0%) | 0 (0=0%) | 0 (0=0%) | 0 (0=0%) | 0 (0=0%) | 0 (0=0%) | 0 (0=0%) |
| CCOC(=O)c1nn(-c2ccc(OC(F)(F)F)cc2)c2cccc([S+]([O-])CC)c2c1=O (stereo not drawn) [Compound P24, ethyl 5-ethylsulfinyl-4-oxo-1-[4-(trifluoromethoxy)phenyl]cinnoline-3-carboxylate] | 0 (0=0%) | 0 (0=0%) | 0 (0=0%) | 0 (0=0%) | 0 (0=0%) | 1 (1=10-20%) | 1 (1=10-20%) | 1 (1=10-20%) | 1 (1=10-20%) | 0 (0=0%) | 0 (0=0%) | 0 (0=0%) |
| CCOC(=O)c1nn(-c2ccc(OC(F)(F)F)cc2)c2cccc(SC3CC3)c2c1=O [Compound P33, ethyl 5-cyclopropylsulfanyl-4-oxo-1-[4-(trifluoromethoxy)phenyl]cinnoline-3-carboxylate] | 2 (2=21-40%) | 1 (1=10-20%) | 0 (0=0%) | 0 (0=0%) | 0 (0=0%) | 1 (1=10-20%) | 0 (0=0%) | 0 (0=0%) | 0 (0=0%) | 0 (0=0%) | 0 (0=0%) | 0 (0=0%) |

From patent publication US20230250066A1, “HERBICIDAL CINNOLINE DERIVATIVES” (SYNGENTA CROP PROTECTION AG, priority 2020, published 2023)
